# Patent publication US20050197350A1, “Novel quinoline, tetrahydroquinazoline, and pyrimidine derivatives and methods of treatment related to the use thereof” (TAISHO PHARMACEUTICAL CO., LTD., priority 2003, published 2005)
# Structures can show the parent of a compound that is named as a salt.
# Tested on: MCH receptors
# Experiment: MCH receptor activity class (method not given)
# Conditions: MCH receptor activity class 1-3 (percent of control at 10^-7 M or IC50)
row,Compound,class
1,N-[(cis-4-{[4-(dimethylamino)pyrimidin-2-yl]amino}cyclohexyl)methyl]-N′-(2-ethyl-6-isopropylphenyl)urea [compound 2422],1 (Class 1: The value of percent of control at 10^−7 M was less than 40% or the value of IC50 was less than 50 nM.)

# Same assay, conditions: MCH receptor; class by percent of control at 10^-7 M or IC50
row,Compound,class
1,"N-cyclopropyl-N′-(cis-4-{[4-(dimethylamino)-5,6,7,8-tetrahydroquinazolin-2-yl]amino}cyclohexyl)thiourea [compound 2028]",3 (Class 3 The value of percent of control at 10^−7 M was more than 60% or the value of IC50 was more than 200 nM.)

# Same assay, conditions: class by percent of control at 10^-7 M or IC50
row,Compound,class
1,"(2-{[4-(4-Dimethylamino-5,6,7,8-tetrahydro-quinazolin-2-ylamino)-cyclohexylamino]-methyl}-cyclohexyl)-phenyl-methanol [compound 1492]",3 (Class 3 The value of percent of control at 10^−7 M was more than 60% or the value of IC50 was more than 200 nM.)
2,"(3-{(1S)-2-[(cis-4-([4-(dimethylamino)-5,6,7,8-tetrahydroquinazolin-2-yl]amino}cyclohexyl)amino]-1-methylethyl}phenyl)(phenyl)methanol [compound 1496]",3 (Class 3 The value of percent of control at 10^−7 M was more than 60% or the value of IC50 was more than 200 nM.)
3,"N4,N4-dimethyl-N2-(cis-4-{[(2,4,5-trimethoxybenzyl)amino]-methyl}cyclohexyl)-5,6,7,8-tetrahydroquinazoline-2,4-diamine [compound 1416]",1 (Class 1: The value of percent of control at 10^−7 M was less than 40% or the value of IC50 was less than 50 nM.)

# Same assay, conditions: class by percent of control at 10^−7 M or IC50
row,Compound,class
1,"Cc1cnc(N[C@H]2CC[C@@H](NC(=O)N(C)c3cccc(F)c3)CC2)nc1N(C)C [compound 3025, N′-(cis-4-{[4-(dimethylamino)-5-methylpyrimidin-2-yl]amino}cyclohexyl)-N-(3-fluorophenyl)-N-methylurea]",1 (Class 1: The value of percent of control at 10^−7 M was less than 40% or the value of IC50 was less than 50 nM.)
2,"Cc1cnc(N[C@H]2CC[C@@H](NC(=O)N(C)c3ccc(F)cc3)CC2)nc1N(C)C [compound 3026, N′-(cis-4-{[4-(dimethylamino)-5-methylpyrimidin-2-yl]amino}cyclohexyl)-N-(4-fluorophenyl)-N-methylurea]",1 (Class 1: The value of percent of control at 10^−7 M was less than 40% or the value of IC50 was less than 50 nM.)
3,"Cc1cnc(N[C@H]2CC[C@@H](NC(=O)N(C)c3ccc(Cl)cc3)CC2)nc1N(C)C [compound 3027, N-(4-chlorophenyl)-N′-(cis-4-{[4-(dimethylamino)-5-methylpyrimidin-2-yl]amino}cyclohexyl)-N-methylurea]",1 (Class 1: The value of percent of control at 10^−7 M was less than 40% or the value of IC50 was less than 50 nM.)
4,"COc1cccc(N(C)C(=O)N[C@H]2CC[C@@H](Nc3ncc(C)c(N(C)C)n3)CC2)c1 [compound 3028, N′-(cis-4-{[4-(dimethylamino)-5-methylpyrimidin-2-yl]amino}cyclohexyl)-N-(3-methoxyphenyl)-N-methylurea]",1 (Class 1: The value of percent of control at 10^−7 M was less than 40% or the value of IC50 was less than 50 nM.)
5,"COc1ccc(N(C)C(=O)N[C@H]2CC[C@@H](Nc3ncc(C)c(N(C)C)n3)CC2)cc1 [compound 3029, N′-(cis-4-{[4-(dimethylamino)-5-methylpyrimidin-2-yl]amino}cyclohexyl)-N-(4-methoxyphenyl)-N-methylurea]",1 (Class 1: The value of percent of control at 10^−7 M was less than 40% or the value of IC50 was less than 50 nM.)
6,CNc1nc(N[C@H]2CC[C@@H](NC(=O)c3ccc(Cl)c(Cl)c3)CC2)ncc1C [compound 3030],3 (Class 3 The value of percent of control at 10^−7 M was more than 60% or the value of IC50 was more than 200 nM.)
7,"N-(3,4-dimethoxyphenyl)-N′-(cis-4-{[4-(dimethylamino)-5,6-dimethylpyrimidin-2-yl]amino}cyclohexyl)urea [compound 2867]",1 (Class 1: The value of percent of control at 10^−7 M was less than 40% or the value of IC50 was less than 50 nM.)

# Target: MCH receptor (Homo sapiens, UniProt Q99705)
# Experiment: High throughput functional screening FLIPR/FDSS6000 (intracellular Ca2+ evoked by MCH)
# Type: cell-based
# Conditions: FLIPR/FDSS, antagonist activity vs 50 nM MCH; class by percent of control at 10^−7 M or IC50; read-out: class
# Excerpt: High Throughput Functional Screening: FLIPR™
# This assay utilized a non-endogenous, constitutively active version of the MCH receptor.
# The concentration of free Ca^2+ in the cytosol of any cell is extremely low, whereas its concentration in the extracellular fluid and endoplasmic reticulum (ER) is very high. Thus, there is a large gradient tending to drive Ca^2+ into the cytosol across both the plasma membrane and ER. The FLIPR™ and FDSS6000™ systems (Molecular Devices Corporation, […] Photonics K.K.) are designed to perform functional cell-based assays, such as the measurement of intracellular calcium for high-throughput screening. The measurement of fluorescent is associated with calcium release upon activation of the Gq-coupled receptors.
# Fluorometric Imaging Plate Reader system was used to allow for rapid, kinetic measurements of intracellular fluorescence in 96 well microplates (or 384 well microplates). Simultaneous measurements of fluorescence in all wells can be made by FLIPR or FDSS6000™ every second with high sensitivity and precision. These systems are ideal for measuring cell-based functional assays such as monitoring the intracellular calcium fluxes that occur within seconds after activation of the Gq coupled receptor.
# Briefly, the cells are seeded into 96 well at 5.5×10^4 cells/well with complete culture media (Dulbecco's Modified Eagle Medium with 10% fetal bovine serum, 2 mM L-glutamine, 1 mM sodium pyruvate and 0.5 mg/ml G418, pH 7.4) for the assay next day. On the day of assay, the media is removed and the cells are incubated with 100 μl of loading buffer (4 μM Fluo4-AM in complete culture media containing 2.5 mM Probenicid, 0.5 mg/ml and 0.2% bovine serum albumin) in 5% CO2 incubator at 37° C. for 1 hr. The loading buffer is removed, and the cells are washed with wash buffer (Hank's Balanced Salt Solution containing 2.5 mM Probenicid, 20 mM HEPES, 0.5 mg/ml and 0.2% bovine serum albumin, pH 7.4)). One hundred fifty μl of wash buffer containing various concentrations of test compound is added to the cells, and the cells are incubated in 5% CO2 incubator at 37° C. for 30 min. […] 530 nm for 290 second. When antagonist activity of compound is tested, 50 nM of MCH is used.
# Use of FLIPR™ and FDSS6000™ can be accomplished by following manufacturer's instruction (Molecular Device Corporation and […] Photonics K.K.).
row,IC50 [nM],Compound
1,< 50,"Cc1cnc(N[C@H]2CC[C@@H](NC(=O)[C@@H]3C[C@H]3c3ccc(Cl)cc3)CC2)nc1N(C)C (relative stereo) [Example 3316, trans-2-(4-chlorophenyl)-N-(cis-4-{[4-(dimethylamino)-5-methylpyrimidin-2-yl]amino}cyclohexyl)-cyclopropanecarboxamide]"
2,< 50,"Cc1cnc(N[C@H]2CC[C@@H](NC(=O)[C@@H]3C[C@H]3c3cccc(Cl)c3)CC2)nc1N(C)C (relative stereo) [Example 3317, trans-2-(3-chlorophenyl)-N-(cis-4-{[4-(dimethylamino)-5-methylpyrimidin-2-yl]amino}cyclohexyl)-cyclopropanecarboxamide]"
3,< 50,"Cc1cnc(N[C@H]2CC[C@@H](NC(=O)[C@@H]3C[C@H]3c3ccc(F)c(F)c3)CC2)nc1N(C)C (relative stereo) [Example 3318, trans-2-(3,4-difluorophenyl)-N-(cis-4-{[4-(dimethylamino)-5-methylpyrimidin-2-yl]amino}cyclohexyl)-cyclopropanecarboxamide]"
4,< 50,"Cc1cnc(N[C@H]2CC[C@@H](NC(=O)[C@@H]3C[C@H]3c3ccc(Cl)c(Cl)c3)CC2)nc1N(C)C (relative stereo) [Example 3319, trans-2-(3,4-dichlorophenyl)-N-(cis-4-{[4-(dimethylamino)-5-methylpyrimidin-2-yl]amino}cyclohexyl)-cyclopropanecarboxamide]"
5,< 50,"Cc1cnc(N[C@H]2CC[C@@H](NC(=O)[C@@H]3C[C@H]3c3cc(C(F)(F)F)cc(C(F)(F)F)c3)CC2)nc1N(C)C (relative stereo) [Example 3320, trans-2-[3,5-bis(trifluoromethyl)phenyl]-N-(cis-4-{[4-(dimethylamino)-5-methylpyrimidin-2-yl]amino}cyclohexyl)-cyclopropanecarboxamide]"

# Same assay, conditions: FLIPR/FDSS, antagonist activity vs 50 nM MCH; class by percent of control at 10^−7 M or IC50; table after the classification; read-out: class
row,IC50 [nM],Compound
1,50 to 200,"CNc1nc(N[C@H]2CC[C@@H](C(N)Cc3ccccc3OC(F)(F)F)CC2)nc2c1CCCC2 (relative stereo) [Example 12, N^4-Methyl-N^2-{cis-4-[(2-trifluoromethoxy-benzyl)-amino-methyl]-cyclohexyl}-5,6,7,8-tetrahydro-quinazoline-2,4-diamine dihydrochloride]"
2,< 50,"CN(C)c1nc(N[C@H]2CC[C@@H](C(N)Cc3ccccc3OC(F)(F)F)CC2)nc2c1CCCC2 (relative stereo) [Example 16, N^4,N^4-Dimethyl-N^2-{cis-4-[(2-trifluoromethoxy-benzyl)-amino-methyl]-cyclohexyl}-5,6,7,8-tetrahydro-quinazoline-2,4-diamine dihydrochloride]"
3,50 to 200,"CNc1cc(N[C@H]2CC[C@@H](NCCc3ccc(Br)cc3OC(F)(F)F)CC2)nc2ccccc12 [Example 2, N^2-{cis-4-[2-(4-Bromo-2-trifluoromethoxy-phenyl)-ethylamino]-cyclohexyl}-N^4-methyl-quinoline2,4-diamine dihydrochloride]"

row,Compound,IC50 [nM]
1,"CNc1cc(N[C@H]2CC[C@@H](NCc3ccc(Br)cc3OC(F)(F)F)CC2)nc2ccccc12 [Example 1, N^2-[cis-4-(4-Bromo-2-triflouromethoxy-benzyl)-amino-cyclohexyl]-N^4-methyl-quinoline-2,4-diamine dihydrochloride]",50 to 200
